Measured values taken from ChEMBL document CHEMBL1137709, “Enhanced activity of fluorinated quaternary ammonium surfactants against Pseudomonas aeruginosa” (Eur J Med Chem, 2009).

tested on: not listed separately; assay: Critical micelle concentration in aqueous potassium hydroxide assessed as breakpoint of conductivity by conductimeter; format: physicochemical; details: buffer

Row | Compound | CMC [mM] | solubility
1 | C[N+](C)(CCC[N+](C)(C)CC(=O)NCCC(F)(F)C(F)(F)C(F)(F)C(F)(F)C(F)(F)C(F)(F)F)CC(=O)NCCC(F)(F)C(F)(F)C(F)(F)C(F)(F)C(F)(F)C(F)(F)F.[Br-].[Br-] | 0.546 | 
2 | C[N+](C)(CCCC[N+](C)(C)CCOC(=O)NCCC(F)(F)C(F)(F)C(F)(F)C(F)(F)C(F)(F)C(F)(F)F)CCOC(=O)NCCC(F)(F)C(F)(F)C(F)(F)C(F)(F)C(F)(F)C(F)(F)F.[Br-].[Br-] | 0.54 | 
3 | C[N+](C)(CC[N+](C)(C)CC(=O)NCCC(F)(F)C(F)(F)C(F)(F)C(F)(F)C(F)(F)C(F)(F)F)CC(=O)NCCC(F)(F)C(F)(F)C(F)(F)C(F)(F)C(F)(F)C(F)(F)F.[Br-].[Br-] | 0.591 | 
4 | C[N+](C)(CCCCCCCC[N+](C)(C)CC(=O)NCCC(F)(F)C(F)(F)C(F)(F)C(F)(F)C(F)(F)C(F)(F)F)CC(=O)NCCC(F)(F)C(F)(F)C(F)(F)C(F)(F)C(F)(F)C(F)(F)F.[Br-].[Br-] | 0.361 | 
5 | C[N+](C)(CCSSCC[N+](C)(C)CC(=O)NCCC(F)(F)C(F)(F)C(F)(F)C(F)(F)C(F)(F)C(F)(F)F)CC(=O)NCCC(F)(F)C(F)(F)C(F)(F)C(F)(F)C(F)(F)C(F)(F)F.[Br-].[Br-] | 0.451 | 
6 | C[N+](C)(CCCC[N+](C)(C)CCNC(=O)CCC(F)(F)C(F)(F)C(F)(F)C(F)(F)C(F)(F)C(F)(F)F)CCNC(=O)CCC(F)(F)C(F)(F)C(F)(F)C(F)(F)C(F)(F)C(F)(F)F.[Br-].[Br-] | 0.547 | 

The remaining lines, values ahead:

Row | CMC [mM] | solubility | Compound
7 | 0.588 |  | C[N+](C)(CCCCCC[N+](C)(C)CC(=O)NCCC(F)(F)C(F)(F)C(F)(F)C(F)(F)C(F)(F)C(F)(F)F)CC(=O)NCCC(F)(F)C(F)(F)C(F)(F)C(F)(F)C(F)(F)C(F)(F)F.[Br-].[Br-]
8 | 0.269 |  | C[N+](C)(CCCCCCCCCCCC[N+](C)(C)CC(=O)NCCC(F)(F)C(F)(F)C(F)(F)C(F)(F)C(F)(F)C(F)(F)F)CC(=O)NCCC(F)(F)C(F)(F)C(F)(F)C(F)(F)C(F)(F)C(F)(F)F.[Br-].[Br-]
9 | 0.296 |  | C[N+](C)(CCCCCCCCCC[N+](C)(C)CC(=O)NCCC(F)(F)C(F)(F)C(F)(F)C(F)(F)C(F)(F)C(F)(F)F)CC(=O)NCCC(F)(F)C(F)(F)C(F)(F)C(F)(F)C(F)(F)C(F)(F)F.[Br-].[Br-]
10 |  | Insoluble | C[N+](C)(CCCC[N+](C)(C)CSCCC(F)(F)C(F)(F)C(F)(F)C(F)(F)C(F)(F)C(F)(F)F)CSCCC(F)(F)C(F)(F)C(F)(F)C(F)(F)C(F)(F)C(F)(F)F.[Br-].[Br-]
11 | 2.39 |  | C[N+](C)(CCCC[N+](C)(C)CCC(F)(F)C(F)(F)C(F)(F)C(F)(F)C(F)(F)C(F)(F)F)CCC(F)(F)C(F)(F)C(F)(F)C(F)(F)C(F)(F)C(F)(F)F.[Br-].[Br-]
12 | 0.466 |  | O=C(C[N+]12CC[N+](CC(=O)NCCC(F)(F)C(F)(F)C(F)(F)C(F)(F)C(F)(F)C(F)(F)F)(CC1)CC2)NCCC(F)(F)C(F)(F)C(F)(F)C(F)(F)C(F)(F)C(F)(F)F.[Br-].[Br-]
13 | 0.559 |  | C[N+](C)(C/C=C/C[N+](C)(C)CC(=O)NCCC(F)(F)C(F)(F)C(F)(F)C(F)(F)C(F)(F)C(F)(F)F)CC(=O)NCCC(F)(F)C(F)(F)C(F)(F)C(F)(F)C(F)(F)C(F)(F)F.[Br-].[Br-]
14 | 0.758 |  | C[N+](C)(CCCC[N+](C)(C)CC(=O)NCCC(F)(F)C(F)(F)C(F)(F)C(F)(F)C(F)(F)C(F)(F)F)CC(=O)NCCC(F)(F)C(F)(F)C(F)(F)C(F)(F)C(F)(F)C(F)(F)F.[Br-].[Br-]
15 | 0.541 |  | C[N+](C)(CC(=O)NCCC(F)(F)C(F)(F)C(F)(F)C(F)(F)C(F)(F)C(F)(F)F)CC(O)C[N+](C)(C)CC(=O)NCCC(F)(F)C(F)(F)C(F)(F)C(F)(F)C(F)(F)C(F)(F)F.[Br-].[Br-]
16 | 0.523 |  | C[N+](C)(CCCC[N+](C)(C)CCNC(=O)NCCC(F)(F)C(F)(F)C(F)(F)C(F)(F)C(F)(F)C(F)(F)F)CCNC(=O)NCCC(F)(F)C(F)(F)C(F)(F)C(F)(F)C(F)(F)C(F)(F)F.[Br-].[Br-]

tested on: Pseudomonas aeruginosa; assay: Antibacterial activity against Pseudomonas aeruginosa CIP A22 after 24 hrs; format: functional; details: CIP A22, 24 h

Row | Compound | MIC [µM]
17 | C[N+](C)(CCC[N+](C)(C)CC(=O)NCCC(F)(F)C(F)(F)C(F)(F)C(F)(F)C(F)(F)C(F)(F)F)CC(=O)NCCC(F)(F)C(F)(F)C(F)(F)C(F)(F)C(F)(F)C(F)(F)F.[Br-].[Br-] | 5.19
18 | C[N+](C)(CCCC[N+](C)(C)CCOC(=O)NCCC(F)(F)C(F)(F)C(F)(F)C(F)(F)C(F)(F)C(F)(F)F)CCOC(=O)NCCC(F)(F)C(F)(F)C(F)(F)C(F)(F)C(F)(F)C(F)(F)F.[Br-].[Br-] | 3.69
19 | C[N+](C)(CC[N+](C)(C)CC(=O)NCCC(F)(F)C(F)(F)C(F)(F)C(F)(F)C(F)(F)C(F)(F)F)CC(=O)NCCC(F)(F)C(F)(F)C(F)(F)C(F)(F)C(F)(F)C(F)(F)F.[Br-].[Br-] | 5.8
20 | C[N+](C)(CCCCCCCC[N+](C)(C)CC(=O)NCCC(F)(F)C(F)(F)C(F)(F)C(F)(F)C(F)(F)C(F)(F)F)CC(=O)NCCC(F)(F)C(F)(F)C(F)(F)C(F)(F)C(F)(F)C(F)(F)F.[Br-].[Br-] | 2.89
21 | C[N+](C)(CCSSCC[N+](C)(C)CC(=O)NCCC(F)(F)C(F)(F)C(F)(F)C(F)(F)C(F)(F)C(F)(F)F)CC(=O)NCCC(F)(F)C(F)(F)C(F)(F)C(F)(F)C(F)(F)C(F)(F)F.[Br-].[Br-] | 4.95
22 | C[N+](C)(CCCC[N+](C)(C)CCNC(=O)CCC(F)(F)C(F)(F)C(F)(F)C(F)(F)C(F)(F)C(F)(F)F)CCNC(=O)CCC(F)(F)C(F)(F)C(F)(F)C(F)(F)C(F)(F)C(F)(F)F.[Br-].[Br-] | 1.88
23 | CCCCCCCCCCCC[N+](C)(C)CCOc1ccccc1 [DOMIPHEN BROMIDE] | 40.8

Now from value to compound:

Row | MIC [µM] | Compound
24 | 5.52 | C[N+](C)(CCCCCC[N+](C)(C)CC(=O)NCCC(F)(F)C(F)(F)C(F)(F)C(F)(F)C(F)(F)C(F)(F)F)CC(=O)NCCC(F)(F)C(F)(F)C(F)(F)C(F)(F)C(F)(F)C(F)(F)F.[Br-].[Br-]
25 | 2.76 | C[N+](C)(CCCCCCCCCCCC[N+](C)(C)CC(=O)NCCC(F)(F)C(F)(F)C(F)(F)C(F)(F)C(F)(F)C(F)(F)F)CC(=O)NCCC(F)(F)C(F)(F)C(F)(F)C(F)(F)C(F)(F)C(F)(F)F.[Br-].[Br-]
26 | 2.83 | C[N+](C)(CCCCCCCCCC[N+](C)(C)CC(=O)NCCC(F)(F)C(F)(F)C(F)(F)C(F)(F)C(F)(F)C(F)(F)F)CC(=O)NCCC(F)(F)C(F)(F)C(F)(F)C(F)(F)C(F)(F)C(F)(F)F.[Br-].[Br-]
27 | 4.59 | C[N+](C)(CCCC[N+](C)(C)CSCCC(F)(F)C(F)(F)C(F)(F)C(F)(F)C(F)(F)C(F)(F)F)CSCCC(F)(F)C(F)(F)C(F)(F)C(F)(F)C(F)(F)C(F)(F)F.[Br-].[Br-]
28 | 7.31 | C[N+](C)(CCCC[N+](C)(C)CCC(F)(F)C(F)(F)C(F)(F)C(F)(F)C(F)(F)C(F)(F)F)CCC(F)(F)C(F)(F)C(F)(F)C(F)(F)C(F)(F)C(F)(F)F.[Br-].[Br-]
29 | 5.82 | O=C(C[N+]12CC[N+](CC(=O)NCCC(F)(F)C(F)(F)C(F)(F)C(F)(F)C(F)(F)C(F)(F)F)(CC1)CC2)NCCC(F)(F)C(F)(F)C(F)(F)C(F)(F)C(F)(F)C(F)(F)F.[Br-].[Br-]
30 | 3.67 | C[N+](C)(C/C=C/C[N+](C)(C)CC(=O)NCCC(F)(F)C(F)(F)C(F)(F)C(F)(F)C(F)(F)C(F)(F)F)CC(=O)NCCC(F)(F)C(F)(F)C(F)(F)C(F)(F)C(F)(F)C(F)(F)F.[Br-].[Br-]
31 | 5.94 | C[N+](C)(CCCC[N+](C)(C)CC(=O)NCCC(F)(F)C(F)(F)C(F)(F)C(F)(F)C(F)(F)C(F)(F)F)CC(=O)NCCC(F)(F)C(F)(F)C(F)(F)C(F)(F)C(F)(F)C(F)(F)F.[Br-].[Br-]
32 | 9.25 | C[N+](C)(CC(=O)NCCC(F)(F)C(F)(F)C(F)(F)C(F)(F)C(F)(F)C(F)(F)F)CC(O)C[N+](C)(C)CC(=O)NCCC(F)(F)C(F)(F)C(F)(F)C(F)(F)C(F)(F)C(F)(F)F.[Br-].[Br-]
33 | 5.38 | C[N+](C)(CCCC[N+](C)(C)CCNC(=O)NCCC(F)(F)C(F)(F)C(F)(F)C(F)(F)C(F)(F)C(F)(F)F)CCNC(=O)NCCC(F)(F)C(F)(F)C(F)(F)C(F)(F)C(F)(F)C(F)(F)F.[Br-].[Br-]
34 | 51.2 | CCCCCCCCNC(=O)C[N+](C)(C)CCCC[N+](C)(C)CC(=O)NCCCCCCCC
